Data reported in JP2008179567A, “ピラジン誘導体を有効成分とする抗がん剤” (Toray Industries Inc, priority 2007, dated 2008).

Assays:
[1] = Body weight and organ damage in mouse colon cancer model; type: in vivo; settings: end of test, 50 mg/kg i.v.; sodium salt
[2] = tested on: tumor derived from Colon26 cells, mouse colon cancer model [Colon26細胞由来の腫瘍, マウス結腸癌モデル]; experiment: Tumor growth inhibition in mouse colon cancer model (Colon26, BALB/c); type: in vivo; settings: 50 mg/kg i.v., sodium salt

Nc1nn(-c2cncc(-n3ccc(CC(=O)O)c3)n2)c2cc(Cl)ccc12 [参考例6, 2-{1-[6-(3-アミノ-6-クロロ-1H-インダゾリル)ピラジン-2-イル]ピロール-3-イル}酢酸]
body weight difference from control group [1]: 体重の差はなく
organ damage [1]: 各臓器の障害は何ら認められなかった
estimated tumor volume ([2]; from day 5 after start of dosing, compared with control group (Fig. 1)): 対照群に比較して小さくなった
tumor growth rate ([2]; day 7 after start of dosing, n=10, relative to estimated tumor volume on day 1, control 1068±197%, P=0.02 (Fig. 2)): 493±81%
tumor weight ([2]; day 15 after start of dosing, n=10, control 2.11±0.25 g, P=0.20): 1.57 ± 0.31 g
reduction of tumor weight ([2]; day 15 after start of dosing, vs control group, P=0.20): 25%
